Test [1] has as its target T1, Cholecystokinin receptor type A (Rattus norvegicus, UniProt P30551).
T1 sequence (P30551 whole entry): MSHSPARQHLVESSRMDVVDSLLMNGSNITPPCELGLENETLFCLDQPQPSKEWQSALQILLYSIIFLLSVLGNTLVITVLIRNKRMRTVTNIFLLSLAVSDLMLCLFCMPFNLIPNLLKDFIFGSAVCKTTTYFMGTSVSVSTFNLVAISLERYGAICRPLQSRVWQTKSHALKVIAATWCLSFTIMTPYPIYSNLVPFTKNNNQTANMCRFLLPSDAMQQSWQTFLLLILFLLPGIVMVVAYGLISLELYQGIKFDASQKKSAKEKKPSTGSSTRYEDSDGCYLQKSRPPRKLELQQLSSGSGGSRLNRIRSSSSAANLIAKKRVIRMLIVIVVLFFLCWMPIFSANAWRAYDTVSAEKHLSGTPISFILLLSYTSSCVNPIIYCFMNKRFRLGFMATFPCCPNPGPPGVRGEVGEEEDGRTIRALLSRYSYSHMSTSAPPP
Nature of the test: Displacement of [125 I] CCK-8 from Cholecystokinin type A receptor of rat pancreas.

Test [2] in a line: Displacement of 125 I-gastrin from gastrin receptor of guinea pig gastric glands.

With `CN1C(=O)[C@@H](NC(=O)c2ccc(Cl)cc2)N=C(c2ccccc2F)c2ccccc21`, in test [1], the IC50 amounted to 0.39 nM. That is a sub-nanomolar value. Same read-out and setting: the result for `CN1C(=O)[C@H](NC(=O)c2ccc(Cl)cc2)N=C(c2ccccc2F)c2ccccc21` reads 2.9 nM; that for `O=C(Nc1ccc(Cl)cc1)NC1N=C(c2ccccc2F)c2ccccc2NC1=O` (racemic), 110 nM.

`CCOC(=O)CN1C(=O)C(NC(=O)c2ccc(Cl)cc2)N=C(c2ccccc2F)c2ccccc21` (racemic) displayed an IC50 in test [2] of 690 nM. This counts as sub-micromolar.

One may read the IC50 as the point on the concentration scale where inhibition reaches its midpoint. A higher IC50 goes with a need for much substance.

(Values after ChEMBL document CHEMBL1124313, “Benzodiazepine gastrin and brain cholecystokinin receptor ligands: L-365,260” (J Med Chem, 1989).)
